Data from paper PMC5681660, “Reduced hepatitis B and D viral entry using clinically applied drugs as novel inhibitors of the bile acid transporter NTCP” (Scientific Reports, 2017).
Where a name gives a salt, the structure may show the parent alone. Read-outs that look alike come from different tables or passages of the source.

Key:
human NTCP [1] = target: T1, human NTCP (Homo sapiens, UniProt Q14973); experiment: Screening fluorescent competitive Myrcludex B-FITC binding assay (96-well, 10 µM drug)
T1 sequence (Q14973 1-349): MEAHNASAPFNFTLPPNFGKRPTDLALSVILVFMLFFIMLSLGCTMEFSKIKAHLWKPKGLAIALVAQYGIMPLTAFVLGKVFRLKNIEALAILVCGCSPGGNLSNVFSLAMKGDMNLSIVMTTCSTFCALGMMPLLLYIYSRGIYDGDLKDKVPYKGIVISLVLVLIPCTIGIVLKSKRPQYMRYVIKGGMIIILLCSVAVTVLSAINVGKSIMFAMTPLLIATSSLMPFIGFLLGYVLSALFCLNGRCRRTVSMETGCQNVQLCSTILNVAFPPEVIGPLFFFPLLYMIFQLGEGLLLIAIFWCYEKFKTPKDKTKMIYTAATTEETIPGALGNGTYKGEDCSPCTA

human NTCP [2] = target: T1, human NTCP; experiment: Screening taurocholate uptake assay (96-well, [14C]taurocholate, 10 µM drug)
[3] = Prestwick library screen, Myrcludex B-FITC binding, 10 µM drug
[4] = Prestwick library screen, taurocholate uptake, 10 µM drug
[5] = ranking score beside the functional and binding assay B-scores of the screen
[6] = Prestwick library screen, 10 µM drug, B-score of Myrcludex B-FITC binding
[7] = Prestwick library screen, 10 µM drug, B-score of taurocholate uptake
[8] = combined ranking from functional and binding assay B-scores
[9] = screen, 10 µM drug, Myrcludex B-FITC binding
[10] = combined ranking from functional and binding screening assays
[11] = screen, 10 µM drug, taurocholate uptake

`Cc1cc(C)nc([N-]S(=O)(=O)c2ccc(N)cc2)n1.[Na+]` [Sulfamethazine sodium salt] showed a B-score binding assay (human NTCP [1]; [3]) of 0.015, a B-score functional assay (human NTCP [2]; [4]) of 0.394 and a Ranking score (human NTCP [2]; [5]) of 760.788.

With `Cc1nnc(NS(=O)(=O)c2ccc(N)cc2)s1` [Sulfamethizole] the B-score binding assay (human NTCP [1]; [6]) was 0.555, the B-score functional assay (human NTCP [2]; [7]) was 1.973 and the Ranking score (human NTCP [2]; [8]) was 1054.65.

`COc1ccc(NS(=O)(=O)c2ccc(N)cc2)nn1` [Sulfamethoxypyridazine] was tested, and the B-score binding assay (human NTCP [1]; [6]) was 1.584, the B-score functional assay (human NTCP [2]; [7]) was 0.331 and the Ranking score (human NTCP [2]; [8]) was 989.975.

In the case of `COc1cc(NS(=O)(=O)c2ccc(N)cc2)ncn1` [Sulfamonomethoxine], the B-score binding assay (human NTCP [1]; [3]) is reported as 0.362, the B-score functional assay (human NTCP [2]; [4]) is reported as -0.097 and the Ranking score (human NTCP [2]; [5]) is reported as 680.363.

`Nc1ccc(S(N)(=O)=O)cc1` [Sulfanilamide] was tested, and the B-score binding assay (human NTCP [1]; [9]) was -1.742, the Ranking score (human NTCP [2]; [10]) was 381.13 and the B-score functional assay (human NTCP [2]; [11]) was 1.042.

Compound `Nc1ccc(S(=O)(=O)Nc2ccnn2-c2ccccc2)cc1` [Sulfaphenazole] has a B-score binding assay (human NTCP [1]; [6]) of 0.287, a B-score functional assay (human NTCP [2]; [7]) of 0.483 and a Ranking score (human NTCP [2]; [8]) of 867.854.

Compound `Nc1ccc(S(=O)(=O)Nc2ccccn2)cc1` [Sulfapyridine] has a B-score binding assay (human NTCP [1]; [9]) of -1.889, a Ranking score (human NTCP [2]; [10]) of 331.804 and a B-score functional assay (human NTCP [2]; [11]) of 0.557.

With `Nc1ccc(S(=O)(=O)[N-]c2cnc3ccccc3n2)cc1.[Na+]` [Sulfaquinoxaline sodium salt] the B-score binding assay (human NTCP [1]; [6]) was 0.273, the B-score functional assay (human NTCP [2]; [7]) was 0.659 and the Ranking score (human NTCP [2]; [8]) was 893.639.

Work on `Nc1ccc(S(=O)(=O)Nc2nccs2)cc1` [Sulfathiazole] yielded a B-score binding assay (human NTCP [1]; [9]) of 0.039, a Ranking score (human NTCP [2]; [10]) of 386.996 and a B-score functional assay (human NTCP [2]; [11]) of -1.223.

For `Cc1noc(NS(=O)(=O)c2ccc(N)cc2)c1C` [Sulfisoxazole], the B-score binding assay (human NTCP [1]; [3]) was 0.207, the B-score functional assay (human NTCP [2]; [4]) was -0.089 and the Ranking score (human NTCP [2]; [5]) was 663.513.

In the case of `COc1cc([S+](C)[O-])ccc1-c1nc2ncccc2[nH]1` (stereo not drawn) [Sulmazole], the B-score binding assay (human NTCP [1]; [9]) is reported as -0.978, the Ranking score (human NTCP [2]; [10]) is reported as 402.209 and the B-score functional assay (human NTCP [2]; [11]) is reported as 0.016.

Work on `CCCCCCCCNC(C)C(O)c1ccc(SC(C)C)cc1` (stereo not drawn) [Suloctidil] yielded a B-score binding assay (human NTCP [1]; [9]) of -2.148, a Ranking score (human NTCP [2]; [10]) of 345.514 and a B-score functional assay (human NTCP [2]; [11]) of 4.189.

With `CCN1CCCC1CNC(=O)c1cc(S(N)(=O)=O)ccc1OC` (stereo not drawn) [Sulpiride] the B-score binding assay (human NTCP [1]; [3]) was 0.598, the B-score functional assay (human NTCP [2]; [4]) was 0.071 and the Ranking score (human NTCP [2]; [5]) was 822.943.

`CNS(=O)(=O)Cc1ccc2[nH]cc(CCN(C)C)c2c1` [Sumatriptan succinate] showed a B-score binding assay (human NTCP [1]) of 0.075, a B-score functional assay (human NTCP [2]) of 0.496 and a Ranking score (human NTCP [2]) of 810.351.

For `Cl.O=c1[nH]oc2c1CCNC2` [THIP Hydrochloride], the B-score binding assay (human NTCP [1]; [9]) was -1.136, the Ranking score (human NTCP [2]; [10]) was 426.394 and the B-score functional assay (human NTCP [2]; [11]) was 0.28.

Work on `Nc1c2c(nc3ccccc13)CCCC2` [Tacrine hydrochloride] yielded a B-score binding assay (human NTCP [1]; [3]) of 0.755, a B-score functional assay (human NTCP [2]; [4]) of -0.044 and a Ranking score (human NTCP [2]; [5]) of 757.813.

With `CC/C(=C(\c1ccccc1)c1ccc(OCCN(C)C)cc1)c1ccccc1` [Tamoxifen citrate] the B-score binding assay (human NTCP [1]; [3]) was 0.04, the B-score functional assay (human NTCP [2]; [4]) was 0.142 and the Ranking score (human NTCP [2]; [5]) was 732.268.

With `[H]/N=C(/NCCCCC)N/N=C/c1c[nH]c2ccc(OC)cc12` [Tegaserod maleate] the B-score binding assay (human NTCP [1]; [6]) was 0.318, the B-score functional assay (human NTCP [2]; [7]) was 1.009 and the Ranking score (human NTCP [2]; [8]) was 947.847.

With `Cc1scc2c1N(C(=O)CN1CCN(C)CC1)c1ccccc1NC2=O` [Telenzepine dihydrochloride] the B-score binding assay (human NTCP [1]; [6]) was 1.535, the B-score functional assay (human NTCP [2]; [7]) was 0.592 and the Ranking score (human NTCP [2]; [8]) was 1037.8.

With `Cn1nnc2c(C(N)=O)ncn2c1=O` [Temozolomide] the B-score binding assay (human NTCP [1]; [6]) was 0.415, the B-score functional assay (human NTCP [2]; [7]) was 0.533 and the Ranking score (human NTCP [2]; [8]) was 906.245.

With `COc1ccc2[nH]c([S+]([O-])Cc3ncc(C)c(OC)c3C)nc2n1` (stereo not drawn) [Tenatoprazole] the B-score binding assay (human NTCP [1]) was -1.326, the B-score functional assay (human NTCP [2]) was -1.232 and the Ranking score (human NTCP [2]) was 199.975.

`CN(C/C=C/C#CC(C)(C)C)Cc1cccc2ccccc12` [Terbinafine] was tested, and the B-score binding assay (human NTCP [1]; [3]) was -0.07, the B-score functional assay (human NTCP [2]; [4]) was 3.878 and the Ranking score (human NTCP [2]; [5]) was 842.5.

`CC(C)(C)NCC(O)c1cc(O)cc(O)c1.CC(C)(C)NCC(O)c1cc(O)cc(O)c1.O=S(=O)(O)O` (stereo not drawn) [Terbutaline hemisulfate] was tested, and the B-score binding assay (human NTCP [1]; [9]) was -2.462, the Ranking score (human NTCP [2]; [10]) was 291.443 and the B-score functional assay (human NTCP [2]; [11]) was 2.669.

With `CCC(=O)O[C@H]1CC[C@H]2[C@@H]3CCC4=CC(=O)CC[C@]4(C)[C@H]3CC[C@]12C` [Testosterone propionate] the B-score binding assay (human NTCP [1]) was 0.252, the B-score functional assay (human NTCP [2]) was -0.451 and the Ranking score (human NTCP [2]) was 567.732.
